Reference: publication PMC9395488, “First-in-human study of IM156, a novel potent biguanide oxidative phosphorylation (OXPHOS) inhibitor, in patients with advanced solid tumors” (Investigational New Drugs, 2022)

System: patients with advanced solid tumors
Test: First-in-human phase 1 dose-escalation study: safety, DLTs, adverse events
Type: in vivo
Source text: This multicenter first-in-human dose-escalation phase 1 study (clinicaltrials.gov identifier: NCT03272256) was designed to determine the MTD or RP2D and to evaluate the safety and tolerability of IM156. Secondary endpoints included PK characteristics, efficacy assessment (objective response rate [ORR], disease control rate [DCR], duration of response [DoR] and progression-free survival [PFS]). Furthermore, exploratory objectives included identification and profiling of IM156 metabolites, evaluations of exploratory PD markers of IM156, and evaluations of any potential relationship between putative biomarkers and safety/efficacy parameters of IM156. The study was conducted in accordance with Good Clinical Practice, the International Council for Harmonisation, and guidelines governing clinical study conduct and the ethical principles originating from the Declaration of Helsinki. The study was approved by each Institutional Review Board and patients provided written informed consent. Patients were enrolled at three sites in South Korea.
The initial dose and schedule of IM156 was chosen based on animal toxicology studies. […] IM156 was administered in the fasted state, with no food for at least 2 h before and 1 h after dosing.
Three DLT-evaluable patients were enrolled at each dose level. If there were no DLTs or other prohibitive adverse events (AEs), the Safety Committee was allowed to recommend escalation to the next highest dose level. If 1 DLT occurred in the first 3 DLT-evaluable patients, enrollment in that cohort was expanded to an additional 3 DLT-evaluable patients; if ≥ 2 DLTs were reported in a cohort, that dose was considered above the MTD.
Safety was assessed through vital signs, weight, laboratory assessments, physical examinations, electrocardiogram, and reporting of AEs as graded by the National Cancer Institute’s Common Terminology Criteria for Adverse Events v4.03 (NCI-CTCAE).
DLTs were defined as the following AEs if they were attributed as related to IM156: asymptomatic grade 4 neutropenia lasting for ≥ 5 days; febrile neutropenia, regardless of grade; grade 4 thrombocytopenia or grade 3 thrombocytopenia with bleeding; any grade ≥ 3 non-hematologic AE (except grade 3 hypertension and grade 3 nausea, vomiting or diarrhea for which proper measures for prevention and treatment were not implemented, and alopecia); blood lactate levels > 5 mmol; grade ≥ 2 AE prohibiting dosing of IM156 for ≥ 21 continuous days except for alterations in serum calcium or phosphorus levels. The safety analysis includes all patients who received at least one dose of study drug.
The safety population was defined as all patients who received at least one dose of IM156. The PK population was not defined in the protocol but included all patients with sufficient PK data to perform adequate PK modeling. The efficacy population included all patients who underwent at least one tumor imaging assessment while receiving IM156. Safety was assessed using descriptive statistics (e.g., DLTs, AEs, laboratory tests, physical examination, 12-lead ECG). The incidence and number of events were reported for the DLTs observed in Cycle 1 per dose group. […] Adverse events and TRAEs were standardized with the System Organ Class and the Preferred Term using the Medical Dictionary for Regulatory Activities v23.0. In addition, TEAEs, serious adverse events (SAEs), TEAE severity, and TEAEs leading to withdrawal were presented by dose group. Efficacy data were to be presented by Waterfall and Swim Lane plots. Time to event endpoints (e.g., DoR, PFS) were determined using Kaplan–Meier estimations with the median value for each endpoint summarized.

[1] = DL3 400 mg orally every other day (n=3)
[2] = DL4 800 mg orally every other day (n=3)

NC(=Nc1ccc(OC(F)(F)F)cc1)N=C(N)N1CCCC1 [IM156]
2: TEAE Nausea, grade 1 (DL4 800 mg QOD (n=3))
3: TRAE Nausea, All grades (patients) (DL3 400 mg QOD oral, N = 3) | TEAE Diarrhoea, grade 1 (DL4 800 mg QOD (n=3)) | TRAE Diarrhoea, All grades (patients) (DL4 800 mg QOD oral, N = 3) | TRAE Nausea, All grades (patients) (DL4 800 mg QOD oral, N = 3)
1: TRAE Insomnia, All grades (patients) (DL3 400 mg QOD oral, N = 3) | TRAE Vomiting, All grades (patients) (DL3 400 mg QOD oral, N = 3) | TEAE Hypertension grade 2 [1] | TEAE Insomnia grade 1 [1] | TEAE Pain in extremity grade 1 [1] | TEAE Psychiatric disorders grade 1 [1] | TEAE Abdominal pain upper, grade 2 (DL4 800 mg QOD (n=3)) | TEAE Abdominal pain, grade 1 (DL4 800 mg QOD (n=3)) | TEAE Abdominal pain, grade 3 (DL4 800 mg QOD (n=3)) | TEAE Asthenia, grade 1 (DL4 800 mg QOD (n=3)) | TEAE Chest pain, grade 1 (DL4 800 mg QOD (n=3)) | TEAE Constipation, grade 1 (DL4 800 mg QOD (n=3)) | TEAE Constipation, grade 2 (DL4 800 mg QOD (n=3)) | TEAE Cough, grade 1 (DL4 800 mg QOD (n=3)) | TEAE Fatigue, grade 1 (DL4 800 mg QOD (n=3)) | TEAE Nausea, grade 2 (DL4 800 mg QOD (n=3)) | TRAE Abdominal Pain, All grades (patients) (DL4 800 mg QOD oral, N = 3) | TRAE Fatigue, All grades (patients) (DL4 800 mg QOD oral, N = 3)
0: TRAE Blood Lactic Acid increased, > G3 (patients) (DL3 400 mg QOD oral, N = 3) | TRAE Blood Lactic Acid increased, All grades (patients) (DL3 400 mg QOD oral, N = 3) | TRAE Constipation, > G3 (patients) (DL3 400 mg QOD oral, N = 3) | TRAE Constipation, All grades (patients) (DL3 400 mg QOD oral, N = 3) | TRAE Decreased appetite, > G3 (patients) (DL3 400 mg QOD oral, N = 3) | TRAE Decreased appetite, All grades (patients) (DL3 400 mg QOD oral, N = 3) | TRAE Diarrhoea, > G3 (patients) (DL3 400 mg QOD oral, N = 3) | TRAE Diarrhoea, All grades (patients) (DL3 400 mg QOD oral, N = 3) | TRAE Fatigue, > G3 (patients) (DL3 400 mg QOD oral, N = 3) | TRAE Fatigue, All grades (patients) (DL3 400 mg QOD oral, N = 3) | TRAE Insomnia, > G3 (patients) (DL3 400 mg QOD oral, N = 3) | TRAE Nausea, > G3 (patients) (DL3 400 mg QOD oral, N = 3) | TRAE Vomiting, > G3 (patients) (DL3 400 mg QOD oral, N = 3) | TEAE Adrenal insufficiency grade 1 [1] | TEAE Adrenal insufficiency grade 2 [1] | TEAE Adrenal insufficiency grade 3 [1] | TEAE Adrenal insufficiency grade 4 [1] | TEAE Anaemia grade 1 [1] | TEAE Anaemia grade 2 [1] | TEAE Anaemia grade 3 [1] | TEAE Anaemia grade 4 [1] | TEAE Appendicitis perforated grade 1 [1] | TEAE Appendicitis perforated grade 2 [1] | TEAE Appendicitis perforated grade 3 [1] | TEAE Appendicitis perforated grade 4 [1] | TEAE Back pain grade 1 [1] | TEAE Back pain grade 2 [1] | TEAE Back pain grade 3 [1] | TEAE Back pain grade 4 [1] | TEAE Cystitis grade 1 [1] | TEAE Cystitis grade 2 [1] | TEAE Cystitis grade 3 [1] | TEAE Cystitis grade 4 [1] | TEAE Dry skin grade 1 [1] | TEAE Dry skin grade 2 [1] | TEAE Dry skin grade 3 [1] | TEAE Dry skin grade 4 [1] | TEAE Flank pain grade 1 [1] | TEAE Flank pain grade 2 [1] | TEAE Flank pain grade 3 [1] | TEAE Flank pain grade 4 [1] | TEAE Hypertension grade 1 [1] | TEAE Hypertension grade 3 [1] | TEAE Hypertension grade 4 [1] | TEAE Hypotension grade 1 [1] | TEAE Hypotension grade 2 [1] | TEAE Hypotension grade 3 [1] | TEAE Hypotension grade 4 [1] | TEAE Insomnia grade 2 [1] | TEAE Insomnia grade 3 [1] | TEAE Insomnia grade 4 [1] | TEAE Pain in extremity grade 2 [1] | TEAE Pain in extremity grade 3 [1] | TEAE Pain in extremity grade 4 [1] | TEAE Pruritus grade 1 [1] | TEAE Pruritus grade 2 [1] | TEAE Pruritus grade 3 [1] | TEAE Pruritus grade 4 [1] | TEAE Psychiatric disorders grade 2 [1] | TEAE Psychiatric disorders grade 3 [1] | TEAE Psychiatric disorders grade 4 [1] | TEAE Purpura grade 1 [1] | TEAE Purpura grade 2 [1] | TEAE Purpura grade 3 [1] | TEAE Purpura grade 4 [1] | TEAE Urinary retention grade 1 [1] | TEAE Urinary retention grade 2 [1] | TEAE Urinary retention grade 3 [1] | TEAE Urinary retention grade 4 [1] | TEAE Urinary tract disorder grade 1 [1] | TEAE Urinary tract disorder grade 2 [1] | TEAE Urinary tract disorder grade 3 [1] | TEAE Urinary tract disorder grade 4 [1] | TRAE Abdominal Pain, > G3 (patients) (DL4 800 mg QOD oral, N = 3) | TRAE Blood Lactic Acid increased, > G3 (patients) (DL4 800 mg QOD oral, N = 3) | TRAE Blood Lactic Acid increased, All grades (patients) (DL4 800 mg QOD oral, N = 3) | TRAE Constipation, > G3 (patients) (DL4 800 mg QOD oral, N = 3) | TRAE Constipation, All grades (patients) (DL4 800 mg QOD oral, N = 3) | TRAE Decreased appetite, > G3 (patients) (DL4 800 mg QOD oral, N = 3) | TRAE Decreased appetite, All grades (patients) (DL4 800 mg QOD oral, N = 3) | TRAE Diarrhoea, > G3 (patients) (DL4 800 mg QOD oral, N = 3) | TRAE Fatigue, > G3 (patients) (DL4 800 mg QOD oral, N = 3) | TRAE Insomnia, > G3 (patients) (DL4 800 mg QOD oral, N = 3) | TRAE Insomnia, All grades (patients) (DL4 800 mg QOD oral, N = 3) | TRAE Nausea, > G3 (patients) (DL4 800 mg QOD oral, N = 3) | TRAE Vomiting, > G3 (patients) (DL4 800 mg QOD oral, N = 3) | TRAE Vomiting, All grades (patients) (DL4 800 mg QOD oral, N = 3) | TEAE Adrenal insufficiency grade 1 [2] | TEAE Adrenal insufficiency grade 2 [2] | TEAE Adrenal insufficiency grade 3 [2] | TEAE Adrenal insufficiency grade 4 [2] | TEAE Anaemia grade 1 [2] | TEAE Anaemia grade 2 [2] | TEAE Anaemia grade 3 [2]
